Data: patent US8883827B2, “Azole derivatives as WTN pathway inhibitors” (Oslo University Hospital HF, priority 2009, dated 2014)

Legend:
Assay type in all cases: cell-based
canonical Wnt signaling [1] = assay: ST-Luc (SuperTOPFlash) Luciferase assay in HEK293 cells, 30% Wnt3a-CM; settings: Homo sapiens, HEK293; 10 μM compound, 30% Wnt3a-CM, 24 h; relative to DMSO control
Procedure: Inhibition of Wnt signaling by compound No. 1 was quantified in vitro using a Luciferase assay in HEK293 cells transiently transfected with SuperTOPFlash plasmid (ST-Luc) (Veeman M T et al., Curr. Biol. 13: 680-685, 2003) at concentrations from 0.1-10 μM. HEK293 cells were purchased from ATCC (American Type Culture Collection) and maintained according to suppliers recommendations.
Transfection was performed using 80000 HEK293 cells seeded in 48-well plates coated with poly-L lysine. After 24 hours, 0.25 μg total plasmid DNA (0.23 μg SuperTOPFlash+0.02 μg pRL-TK (Renilla)—Promega) and 0.75 μl FuGENE6 (Roche) was combined in a total volume in 25 μl Opti-MEM® (Invitrogen) as described by the manufacturer (Roche). The transfection mixture was added to the plated cells and media were changed after 24 hours.
The Luciferase assay was performed by incubating transfected cells for 24 hours with various concentrations of compound No. 1 in 30% Wnt3a-CM (Wnt3a containing conditioned medium from L Wnt3a cells was harvested as described by ATCC). All treated reporter cells were finally lysed and the firefly luciferase and Renilla activities were measured on a 20/20n Luminometer (Turner BioSystems) as described in the Dual-Glo™ Luciferase Assay System Technical Manual (Promega).
HEK293 cells were transfected, grown and assayed as described in Example 22. 24 hours after seeding, the cells were incubated for an additional 24 hours with 10 μM concentrations of compounds in 30% Wnt3a-CM.
The percent activities shown in Table 3 are calculated relative to DMSO as a control. Some values shown are averages of multiple measurements. Compound XAV939 (Novartis; Huang et al., Nature (2009), 461, pp. 614-20) which is used as a positive control, has an activity of 7%.

canonical Wnt signaling [2] = assay: IC50 in STF/REN HEK293 cells, 50% Wnt3a-CM; settings: Homo sapiens; STF/REN HEK293, 50% Wnt3a-CM, 24 h
Procedure: IC50 values were calculated using STF/REN HEK293 cells prepared essentially according to Example 22. Briefly, HEK293 cells (80,000 cells per well) were seeded in 48-well plates coated with poly-L lysine. 24 hours after seeding, the cells were incubated for an additional 24 hours with various compound concentrations in 50% Wnt3a-CM. After compound exposure, the cells were lysed and the firefly luciferase and Renilla activities were measured on a 20/20n Luminometer (Turner BioSystems) as described in the Dual-Glo™ Luciferase Assay System Technical Manual (Promega).
(§1) XLfit (idbs) was used to determine the IC50 and GI50 values in inhibition experiments. The data were fit to the following formulae:
IC50: Langmuir Binding Isotherm: fit=((A+(B*x))+(((C−B)*(1−exp((−1*D)*x)))/D)) res=(y−fit)

SW480 cells = assay: Growth inhibition (GI50) MTS assay; settings: Homo sapiens, 72 h
Procedure: Growth inhibition curves were prepared using SW480 cells, prepared essentially according to Example 23. SW480 cells (3000 cells per well) were seeded on 96 well plates (eight replicates per treatment). 24 hours later and daily thereafter, cell culture media (including 10% FBS) was mixed with various compound concentrations or with 0.1% DMSO vehicle and then added to the wells. Sixteen wells of seeded control cells, defining incubation time zero (to =24 hour after cell seeding), were incubated with […] substrate in 100 μl of phenol-free D-MEM (Invitrogen) for 2 hours, as described in the CellTiter 96® AQueous Non-Radioactive Cell Proliferation Assay protocol (MTS, Promega). The A490 was recorded. The treatment samples were likewise measured after 72 hours. The following formula was used to determine the single well relative A490 sample values: ((Sample A490−Average A490t0)*100)/(Average A490t720.1% DMSO control−Average A490t0)
as §1
GI50: Eadie-Hofstee Model: fit=(A+((B*x)/((C*(D+1))+x))) inv=(((y−A)*(C*(D+1)))/((A+B)−y)) res=(y−fit)

[3] = system: SW480 colon carcinoma cells; assay: MTS cell proliferation assay, Table 5; settings: Homo sapiens; SW480, 10 μM, 72 h; relative to DMSO control; read-out: Cell proliferation (%) for test compounds
Procedure: For the experiment giving the results shown in Table 5, cells (3000 per well) were seeded on 96 well plates (eight replicates per treatment). After 24 hours, and daily thereafter, cell culture medium (including 10% FBS) was mixed with 10 μM compounds or with 0.1% DMSO vehicle and then added to the wells. Sixteen wells of seeded control cells, defining incubation time zero (t0=24 hour after cell seeding), were incubated with 20 μl substrate in 100 μl phenol free D-MEM (Invitrogen) for 2 hours, as described in the CellTiter 96® AQueous Non-Radioactive Cell Proliferation Assay protocol (Promega). The A490 was recorded. The treatment samples were likewise measured after 72 hours.
The quantity of reduced MTS product (as measured by the absorbance at 490 nm) is directly proportional to the number of living cells in the culture and thus allows a direct comparison of cell proliferation in each case. DMSO was used as a control. The following formula was used to determine single well relative A490 sample values: ((Sample A490−Average A490t0)*100)/(Average A490t720.1% DMSO control−Average A490t0)
The proliferation of SW480 cells (in percent) is the A492 value relative to that of the DMSO control.

Compound	activity at 10 µM (canonical Wnt signaling [1])	IC50 (canonical Wnt signaling [2])	GI50 (SW480 cells)	activity at 10 µM [3]
Cc1ccc(-c2noc(CSc3nnc(-c4ccnc(O)c4)n3-c3ccccc3C)n2)cc1 [Compound 46]	13.3%	700 nM	9000 nM	–
Cc1ccc(-c2nnc([C@@H](C)Sc3nnc(-c4ccncc4)n3-c3ccccc3Cl)o2)cc1 [99b]	12%	163 nM	–	72%
Cc1ccc(-c2nnc(CSc3nnc(-c4ccncc4)n3-c3ccccc3C)o2)cc1 [Compound 48]	9.9%	220 nM	9000 nM	–
Cc1ccc(-c2nnc(CSc3nnc(-c4ccnc(O)c4)n3-c3ccccc3Cl)o2)cc1 [compound 116, 4-(5-((5-p-tolyl-1,3,4-oxadiazol-2-yl)methylthio)-4-(2-chlorophenyl)-4H-1,2,4-triazol-3-yl)pyridin-2-ol]	7%	262 nM	–	70%
Clc1ccc(-c2nnc(CSc3nnc(-c4ccncc4)n3-c3ccccc3Cl)o2)c(Cl)c1 [compound 114, 4-(5-((5-(2,4-dichlorophenyl)-1,3,4-oxadiazol-2-yl)methylthio)-4-(2-chlorophenyl)-4H-1,2,4-triazol-3-yl)pyridine]	4.2%	795 nM	–	69%
Cc1ccc(-c2nnc(CSc3nnc(-c4ccc(Cl)nc4)n3-c3ccccc3Cl)o2)cc1 [Compound 108]	0.8%	218 nM	–	42%
Cc1ccc(-c2nnc(CSc3nnc(-c4ccncc4)n3-c3ccccc3Cl)o2)c(Br)c1 [compound 72]	20%	551 nM	–	55%
Cc1ccc(-c2nnc(CSc3nnc(-c4ccc(F)cc4F)n3-c3ccccc3Cl)o2)cc1 [compound 110, 3-((5-p-tolyl-1,3,4-oxadiazol-2-yl)methylthio)-4-(2-chlorophenyl)-5-(2,4-difluorophenyl)-4H-1,2,4-triazole]	2%	872 nM	–	50%
Cc1ccc(-c2noc(CSc3nnc(-c4ccncc4)n3-c3ccccc3C)n2)cc1 [Compound 7]	5.6%	880 nM	7500 nM	–
COc1ccc(-n2c(NCc3nc(-c4ccc(C)cc4)no3)nnc2-c2ccncc2)cc1 [Compound 19]	44.1%	8800 nM	> 25000 nM	–
Cc1ccccc1-n1c(SCc2nc(-c3ccc(Cl)cc3)no2)nnc1-c1ccncc1 [Compound 41]	9.4%	470 nM	< 5000 nM	–
Cc1ccc(-c2nnc(CSc3nnc(-c4ccncc4)n3-c3ccccc3Cl)o2)cn1 [compound 68]	17%	381 nM	–	60%
Clc1cc(Cl)cc(-c2nnc(CSc3nnc(-c4ccncc4)n3-c3ccccc3Cl)o2)c1 [compound 117, 4-(5-((5-(3,5-dichlorophenyl)-1,3,4-oxadiazol-2-yl)methylthio)-4-(2-chlorophenyl)-4H-1,2,4-triazol-3-yl)pyridine]	9%	834 nM	–	85%
Cc1ccc(-c2noc(CSc3nnc(-c4ccncc4)n3-c3ccccc3F)n2)cc1 [Compound 42]	14.6%	400 nM	8000 nM	–
Cc1ccc(-c2nnc(CSc3nnc(-c4ccncn4)n3-c3ccccc3Cl)o2)cc1 [compound 105, 4-(5-((5-p-tolyl-1,3,4-oxadiazol-2-yl)methylthio)-4-(2-chlorophenyl)-4H-1,2,4-triazol-3-yl)pyrimidine]	4.4%	29 nM	–	54%
COc1ccc(-n2c(SCc3nc(-c4ccc(C)cc4)no3)nnc2-c2ccccc2OC)cc1 [Compound 8]	28.5%	2100 nM	10500 nM	–
COc1ccc(-n2c(SCc3nnc(-c4ccccc4)o3)nnc2-c2ccncc2)cc1 [Compound 11]	9.3%	1500 nM	> 25000 nM	–
Cc1ccc(-c2noc(CSc3nnc(-c4ccncc4)n3-c3cccc(C)c3C)n2)cc1 [Compound 44]	10.4%	570 nM	22000 nM	–
Clc1ccc(-c2nnc(CSc3nnc(-c4ccncc4)n3-c3ccccc3Cl)o2)cc1Cl [compound 130, 4-(5-((5-(3,4-dichlorophenyl)-1,3,4-oxadiazol-2-yl)methylthio)-4-(2-chlorophenyl)-4H-1,2,4-triazol-3-yl)pyridine]	9%	151 nM	–	72%
Clc1ccc(-c2nnc(CSc3nnc(-c4ccncc4)n3-c3ccccc3Cl)o2)cc1 [compound 113, 4-(5-((5-(4-chlorophenyl)-1,3,4-oxadiazol-2-yl)methylthio)-4-(2-chlorophenyl)-4H-1,2,4-triazol-3-yl)pyridine]	4.9%	59 nM	–	56%
COc1ccc(-n2c(SCc3nc(-c4ccc(Cl)cc4)no3)nnc2-c2ccncc2)cc1 [Compound 5]	10%	950 nM	10000 nM	–
Cc1ccc(-c2nnc(CSc3nnc(-c4ccc(Cl)cc4Cl)n3-c3ccccc3Cl)o2)cc1 [compound 112, 3-((5-p-tolyl-1,3,4-oxadiazol-2-yl)methylthio)-5-(2,4-dichlorophenyl)-4-(2-chlorophenyl)-4H-1,2,4-triazole]	0.3%	688 nM	–	39%
Cc1ccc(-c2nnc(CSc3nnc(-c4ccc(Cl)c(Cl)c4)n3-c3ccccc3Cl)o2)cc1 [compound 131, 3-((5-p-tolyl-1,3,4-oxadiazol-2-yl)methylthio)-4-(2-chlorophenyl)-5-(3,4-dichlorophenyl)-4H-1,2,4-triazole]	4%	–	–	53%
COc1ccc(-n2c(SCC(C)(C)c3nc(-c4ccc(C)cc4)no3)nnc2-c2ccncc2)cc1 [Compound 18]	32.3%	5900 nM	> 25000 nM	–
Cc1ccc(-c2noc(CSc3nnc(-c4ccncc4)n3-c3cccc(Cl)c3C)n2)cc1 [Compound 10]	10.1%	3300 nM	13500 nM	–
